From US11033604B2, “Reagents and methods for treating bacterial infection” (priority 2018, dated 2021)
Non-standard residues stand in square brackets, D forms with d. No end group written: not given here.

How the values were obtained:
S. mutans biofilm = test: TEM of S. mutans biofilm; type: cell-based, Streptococcus mutans; conditions: 100 μM (FIG. 16)
Description: FIG. 16. Synthetic α-sheet peptides as a novel anti-biofilm agent for the dental pathogen, S. mutans. A) ThT fluorescence of S. mutans biofilms decreases upon addition of synthetic α-sheet peptides AP193, AP407, and AP90. […] D) synthetic α-sheet peptides added to S. mutans grown on hydroxyapatite ceramic particles led to significant decreases in ThT fluorescence.
The phenotypic effects of synthetic α-sheet peptides were determined using TEM.

FapC = molecular target: T1, FapC (Pseudomonas aeruginosa, UniProt Q9I2F0); test: FapC in vitro ThT aggregation assay; type: biochemical, P. aeruginosa; conditions: 0.2 mg/mL FapC, 37° C.
T1 sequence (Q9I2F0 25-340): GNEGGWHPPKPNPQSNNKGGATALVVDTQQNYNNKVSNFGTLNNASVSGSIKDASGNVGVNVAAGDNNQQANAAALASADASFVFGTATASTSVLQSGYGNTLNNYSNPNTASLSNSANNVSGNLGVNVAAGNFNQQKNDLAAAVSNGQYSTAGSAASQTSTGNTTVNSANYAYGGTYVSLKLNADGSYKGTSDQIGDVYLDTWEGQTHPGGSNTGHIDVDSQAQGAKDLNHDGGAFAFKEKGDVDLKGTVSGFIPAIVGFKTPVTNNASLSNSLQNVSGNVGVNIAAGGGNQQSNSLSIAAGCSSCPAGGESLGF
Description: FIG. 15. Action of synthetic α-sheet peptides in the P. aeruginosa system. […] Error bars indicate standard deviation of the mean of at least three replicates. Significance values are p<0.05: *, p<0.01: **, p<0.001: ***.
Samples are aliquoted into 96 well plates and incubated in a plate reader at 37° C. with shaking every 5 min. As previously, the fluorescence of ThT monitors protein fibril formation in real time. Synthetic α-sheet peptides may also be added to the reaction to determine whether they inhibit FapC fibril formation, as in the case of AP90 (FIG. 15A).

[1] = tested on: Pseudomonas aeruginosa (PA); test: Crystal violet biofilm assay; type: cell-based
Text: (§1) Furthermore, these same inhibitors are active against EC, SE, and SM.

Escherichia coli (EC) = test: Crystal violet biofilm assay; type: cell-based
Text: as §1

[2] = tested on: Staphylococcus epidermidis (SE); test: Crystal violet biofilm assay; type: cell-based
Text: as §1

[3] = tested on: Streptococcus mutans (SM); test: Crystal violet biofilm assay; type: cell-based
Text: as §1

UTI89 ΔcsgA biofilms = test: In situ ThT assay in UTI89 ΔcsgA knockout biofilms; type: cell-based, E. coli; conditions: UTI89 ΔcsgA knockout strain
Description: (§2) FIG. 12. […] Error bars indicate standard deviation of the mean of at least three replicates. Significance values are p<0.05: *, p<0.01: **, p<0.001: ***.
Biofilms of the cystitis E. coli isolate UTI89 were cultivated in YESCA broth with 4% DMSO at 26° C., conditions which are known to elicit increased curli biogenesis. Varying doses of the dimeric α-sheet peptide, AP193, were also added to the cultures at the time of inoculation. AP193 is covalently linked through a single cysteine in each of its constituent monomers. Since DMSO was already present in the biofilm growth medium, AP193 stocks were supplemented with 4% DMSO to improve solubility, and the buffer solution was maintained at high pH (sodium carbonate, pH 9.6) to retain oxidation of the disulfide bond. After 48 hours of growth, biofilms were washed, homogenized, and stained with ThT.
(§3) UTI89 biofilms were also cultivated in the presence of an unstructured peptide, P1, which retains a mixture of L- and D-amino acids but lacks the α-sheet secondary structure of AP193.

[4] = tested on: E. coli UTI89 vsfGFP-9 biofilms; test: Immune clearance test: phagocytosis of biofilm bacteria by RAW 264.7 macrophages (flow cytometry); type: cell-based; conditions: RAW 264.7 cells, 10:1 bacteria:cell, 30 min, 37° C.
Description: FIG. 14. The macrophages are not able to phagocytose biofilm-associated bacteria (A). Administration of AP193 breaks up the biofilms and yields a greater fraction of free-swimming bacteria that are susceptible to phagocytosis (B).
To investigate this proposition, biofilms were cultivated in the presence or absence of synthetic α-sheet peptides (shown for AP193 in FIG. 14) and then co-incubated with murine macrophages. A chromosome-based GFP derivative of E. coli UTI89, vsfGFP-9, was used to visualize the extent of phagocytosis in each case with flow cytometry. Murine monocyte/macrophage-like cells, RAW 264.7, were cultured in DMED+10% FBS at 37° C. in 75 cm^2 flasks. Biofilms were grown in 48 well plates for 48 h in YESCA broth+4% DMSO at 26° C. Planktonic cells were aspirated and biofilms rinsed and gently detached from plates using sterile PBS. The suspensions were combined in a 10:1 (bacteria:cell) ratio with RAW 264.7 cells and incubated for 30 min at 37° C. in PBS to allow uptake of bacteria by macrophages. Trypsin was added at a concentration of 0.25% and incubated for 10 min to remove any bacteria bound to the external surfaces of the RAW 264.7 cells. […] Cells were then gated according to positive GFP (phagocytosed bacteria) using bacteria-free controls on a FACS Cantoll flow cytometer, and the percentage of cells positive for GFP was recorded and analyzed.

CsgA = CsgA (Escherichia coli, UniProt P28307); conditions: dimeric AP193, 14:1 molar ratio (CsgA:AP193), 150 h, 25° C.
Sequence of CsgA (P28307 21-151): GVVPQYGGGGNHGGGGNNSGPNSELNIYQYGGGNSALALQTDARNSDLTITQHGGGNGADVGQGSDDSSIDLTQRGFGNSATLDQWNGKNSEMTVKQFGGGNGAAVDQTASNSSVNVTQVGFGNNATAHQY
Description: A) CsgA aggregation monitored by ThT fluorescence. […] Error bars represent one standard deviation from the mean of three replicates.
For inhibition assays with CsgA, purified, recombinant CsgA was desalted from a stock solution containing 8 M Gnd HCl into 50 mM potassium phosphate buffer (KPi, pH 6.2) and diluted to a final concentration of 0.2 mg/m L. Samples were aliquoted into 96 well plates and incubated quiescently at 25° C. Plates were removed for periodic measurements in a plate reader, where the fluorescence of Thioflavin T (ThT) was used to monitor protein fibril formation in real time. ThT fluoresces upon binding p-sheet structure and serves as a proxy for amyloid fibril content.
In some samples, the dimeric α-sheet peptide AP193 was also added to the mixture at a molar ratio of 14:1 (CsgA:AP193). After 150 h incubation, the extent of amyloid formation in the two samples was measured by ThT fluorescence (FIG. 11C).

UTI89 WT biofilms = test: Biofilm adherence to glass slides after washing; type: cell-based, E. coli; conditions: after gentle washing
Text: as §2, §3

[5] = tested on: E. coli UTI89 WT biofilms; test: Antibiotic susceptibility test with gentamicin (live/dead ratio and CFU counts); type: cell-based; conditions: 150 μg/mL gentamicin, 6 h, vs peptide-free controls
Description: FIG. 13. Synthetic α-sheet peptides increase antibiotic susceptibility of uropathogenic E. coli biofilms, as measured by A) live/dead fluorescence ratio and (B) CFU counts. Error bars indicate standard deviation of the mean of at least three replicates.
To test this hypothesis, biofilms of E. coli UTI89 WT were grown in YESCA broth+4% DMSO in 48 well plates at 26° C. Media was removed 6 h prior to the end of the 48 h incubation period and replaced either with fresh media alone or fresh media containing 150 μg/mL gentamicin (Gm), an aminoglycoside antibiotic. After the 6 h incubation, biofilms were harvested by aspirating the planktonic cells, rinsing the biofilm once with PBS, and then resuspending the biofilm in PBS. Biofilm suspensions were homogenized with a probe sonicator and subjected to one of two processing protocols. In the first assay, the bacterial density of each biofilm suspension was normalized by absorbance at 670 nm and then bacteria were stained with Live/Dead (Syto9/propidum iodide) to obtain a fluorescent readout of viability. In the second assay, biofilm suspensions were serially diluted in sterile PBS and then plated on agar plates to obtain colony-forming unit (CFU) counts.

Substance: RGEmNlSwMNEYSGWtMnLkMGR (RGEMNLSWMNEYSGWTMNLKMGR; not fully specified (residues 4, 6, 8, 16, 18, 20); printed as RGEmNlSwMNEYSGWtMnLkMGR) [AP90]
- Fibrillar structures in extracellular material by TEM (S. mutans biofilm): such structures were not observed
- FapC fibril formation (ThT) (FapC): inhibits fibril formation
- Biofilm inhibition (crystal violet, FIG. 10) [1]: inhibition
- Activity against biofilm-forming bacteria (crystal violet) (Escherichia coli (EC)): active
- Activity against biofilm-forming bacteria (crystal violet) [2]: active
- Activity against biofilm-forming bacteria (crystal violet) [3]: active

Substance: RGEmNyFwMNEYYGWtMnCkMGR (RGE[dM]N[dY]F[dW]MNEYYGW[dT]M[dN]C[dK]MGR) [AP193, hydrophobic AP90 derivative, variant to support different chemical coupling reactions]
- ThT fluorescence of biofilm (UTI89 ΔcsgA biofilms): no significant changes
- Susceptibility of biofilm bacteria to phagocytosis [4]: more susceptible to phagocytosis
- CsgA fibril formation (endpoint ThT fluorescence) (CsgA): significantly reduced
- Adherence of biofilm to glass slides (UTI89 WT biofilms): far less adherent to glass slides
- Efficacy of gentamicin (Gm) against biofilms (live/dead ratio, CFU counts) [5]: improved the efficacy of Gm
